# Measurements reported in patent US5753656A, “Method for treating spinocerebellar degeneration” (Suntory Limited, priority 1994, dated 1998).
# “Also recorded” adds a separate entry of the source. Counter-ions that a name gives are not always drawn.
# What was measured:
# [1] = KOKAI No. 25323/84; cited from earlier work
# [2] = Acute oral toxicity (LD50) in rats; assay type: in vivo
# Source text: As the active ingredients provided by the present invention for treatment of spinocerebellar degeneration, (6R)-L-erythro-5,6,7,8-tetrahydrobiopterin (BH4) and its salts are most preferable, but analogous compounds such as (6R,S)-5,6,7,8-tetrahydrobiopterin, 1',2'-diacetyl-5, 6,7,8-tetrahydrobiopterin, sepiapterin, 6-methyl-5,6,7,8-tetrahydropterin or 6-phenyl-5,6,7,8-tetrahydropterin and their salts may also be acceptable. However, needless to say, BH4 which naturally exists in the body is preferable. […] The other compounds belonging to formula (I) likewise have little or no acute toxicity.
# [3] = test system: Machado-Joseph disease (patients); assay: Double-blind crossover trial of BH4: subjective improvement; assay type: in vivo, humans; settings: 1 mg/kg once daily, 10 days
# Method: (§1) To 5 patients with Machado-Joseph disease listed in Table 1, a placebo (ascorbic acid) and BH4 were administered in a double-blind clinical trial with the procedure as follows:
# (§2) Three patients from three families diagnosed as "clinically definite family" and two patients from two families diagnosed as "probable family" according to the diagnostic criteria by Sakai (Sakai, T., ditto) were selected.
# (§3) The patients received 1 mg/kg(b.w.) of BH4 or ascorbic acid in capsules once daily, after lunch. The chemical form of BH4 given was BH4 dihydrochloride in Cases 1 to 3 and 5 and (6R,S)-L-erythro-5, 6,7,8-tetrahydrobiopterin dihydrochloride in Case 4.
# Each patient was asked with respect to six symptomatic parameters: dysarthria, dysphagia, disturbance of dexterity, disturbance of stationary balance on standing, disturbance of gait, and overall sense of general well-being.
# (§4) A double-blind, placebo-controlled crossover design was adopted.
# (§5) Data were analyzed using paired t-test.
# [4] = test system: Machado-Joseph disease (patients); assay: Double-blind crossover trial of BH4: neurological examination; assay type: in vivo, humans; settings: 1 mg/kg once daily, 10 days
# Method: as §1, §2, §3
# The examination was performed in respect of muscle tonus of the extremities, deep reflexes, severity of dystonia, disturbance of stationary balance on standing, finger-to-nose test, finger tapping test, diadochokinetic test, heel-to-knee tapping test, and dysarthria.
# as §4, §5
# [5] = test system: Machado-Joseph disease (patients); assay: Double-blind crossover trial of BH4: overall conclusion on neurologic symptoms; assay type: in vivo, humans; settings: 1 mg/kg once daily, 10 days, oral capsules
# Method: as §1, §2, §3
# Each patient was assessed by the following three methods:
# as §4, §5
smiles,measurement,setting,value
"C[C@H](O)[C@H](O)C1CNc2nc(N)[nH]c(=O)c2N1 (stereo partly drawn) [(6R,S)-5,6,7,8-tetrahydrobiopterin]",Toxicity as seen in the treatment of patients with Parkinson disease,[1],only slightly toxic
C[C@H](O)[C@H](O)[C@H]1CNc2nc(N)[nH]c(=O)c2N1 [BH4 dihydrochloride],"Acute oral toxicity, assessment in words",[2],practically non-toxic
same,LD50,"[2]; rat, in vivo",> 2000 mg/kg
"C[C@H](O)[C@H](O)[C@H]1CNc2nc(N)[nH]c(=O)c2N1 [BH4, (6R)-L-erythro-5,6,7,8-tetrahydrobiopterin]","Subjective symptoms, overall result",[3],none showed a statistically significant improvement
same,"Neurological parameters, overall result",[4],none exhibited a statistically significant improvement
same,"Effect on neurologic symptoms of Machado-Joseph disease, conclusion",[5],remarkable therapeutic efficacy; also recorded: effective in improving neurologic symptoms
same,"Effect on neurologic symptoms of Machado-Joseph disease, conclusion",[5]; listed as tetrahydrobiopterin,remarkable amelioration of the neurologic symptoms
